Reference: patent EP2242752B1, “[…] IMIDAZOLES AS HEPATITIS C VIRUS INHIBITORS” (Bristol-Myers Squibb Company, priority 2008, dated 2009)

Test system: HCV 1b genotype
Assay: HCV Replicon assay (HCV 16-377-neo replicon cells)
Type: cell-based
Settings: Hepatitis C virus; HCV 1b genotype replicon cells; read-out: EC50 ranges against HCV 1b
Protocol: An HCV Replion assay was utilized in the present disclosure, and was prepared, conducted and validated as described in commonly owned PCT/US2006/022197 and in O'Boyle et. al. Antimicrob Agents Chemother. 2005 Apr;49(4): 1346-53.
HCV 16-377-neo replicon cells were used to test the currently described compound series as well as cells resistant to compound A due to a Y2065H mutation in NS5A (described in application PCT/US2006/022197). The compounds tested were determined to have more than 10-fold less inhibitory activity on cells resistant to compound A than wild-type cells indicating a related mechanism of action between the two compound series. Thus, the compounds of the present disclosure can be effective to inhibit the function of the HCV NS5A protein and are understood to be as effective in combinations as previously described in application PCT/US2006/022197 and commonly owned WO/O4014852. Further, the compounds of the present disclosure can be effective against the HCV 1b genotype. It should also be understood that the compounds of the present disclosure can inhibit multiple genotypes of HCV. […] In one embodiment compounds of the present disclosure are active against the 1a, 1b, 2a, 2b, 3a, 4a, and 5a genotypes.

Compound | EC50 [nM]
COC(=O)N[C@@H](C)C(=O)N1CCC[C@H]1c1nc(-c2ccc(-c3ccc(-c4[nH]c([C@@H]5CCCN5C(=O)[C@H](C)NC(=O)OC)nc4CO)cc3)cc2)c[nH]1 [Example J14f.1, methyl ((1S)-2-((2S)-2-(4-(4'-(4-(hydroxymethyl)-2-((2S)-1-(N-(methoxycarbonyl)-L-alanyl)-2-pyrrolidinyl)-1H-imidazol-5-yl)-4-biphenylyl)-1H-imidazol-2-yl)-1-pyrrolidinyl)-1-methyl-2-oxoethyl)carbamate] | 1 to 99
COC(=O)N[C@@H](C(=O)N1[C@@H](C)CC[C@H]1c1nc(-c2ccc(-c3ccc(-c4c[nH]c([C@@H]5CC[C@H](C)N5C(=O)[C@H](NC(=O)OC)c5ccccc5)n4)cc3)cc2)c[nH]1)c1ccccc1 [Example M153, dimethyl (4,4'-biphenyldiylbis(1H-imidazole-4,2-diyl((2S,5S)-5-methyl-2,1-pyrrolidinediyl)((1R)-2-oxo-1-phenyl-2,1-ethanediyl)))biscarbamate] | 0.001 to 0.999
CC[C@H](NC(=O)OC)C(=O)N1[C@@H](C)CC[C@H]1c1nc(-c2ccc(-c3ccc(-c4c[nH]c([C@@H]5CC[C@H](C)N5C(=O)[C@H](CC)NC(=O)OC)n4)cc3)cc2)c[nH]1 [Example M154, dimethyl (4,4'-biphenyldiylbis(1H-imidazole-4,2-diyl((2S,5S)-5-methyl-2,1-pyrrolidinediyl)((2S)-1-oxo-1,2-butanediyl)))biscarbamate] | 0.001 to 0.999
COC(=O)N[C@@H](C(=O)N1CCC[C@H]1c1nc(C)c(-c2ccc(-c3ccc(-c4[nH]c([C@@H]5CCCN5C(=O)[C@H](NC(=O)OC)c5ccccc5)nc4C)cc3)cc2)[nH]1)c1ccccc1 [Example E5j, dimethyl (4,4'-biphenyldiylbis((4-methyl-1H-imidazole-5,2-diyl)(2S)-2,1-pyrrolidinediyl((1R )-2-oxo-1-phenyl-2,1-ethanediyl)))biscarb amate] | 0.001 to 0.999
CC(C)[C@H](N)C(=O)N1[C@@H]2C[C@@H]2C[C@H]1c1nc(-c2ccc(-c3ccc(-c4cnc([C@@H]5C[C@H]6C[C@H]6N5C(=O)[C@@H](N)C(C)C)[nH]4)cc3)cc2)c[nH]1 [Example M140a-i, (2S)-1-((1R,3S,5R)-3-(4-(4'-(2-((1R,3S,5R)-2-((2S)-2-amino-3-methylbutanoyl)-2-azabicyclo[3.1.0]hex-3-yl)-1H-imidazol-5-yl)-4-biphenylyl)-1H-imidazol-2-yl)-2-azabicyclo[3.1.0]hex-2-yl)-3-methyl-1-oxo-2-butanamine] | 1 to 99
CCN(CC)[C@@H](C(=O)N1CC(F)(F)C[C@H]1c1nc(-c2ccc(-c3ccc(-c4c[nH]c([C@@H]5CCCN5C(=O)[C@@H](c5ccccc5)N(CC)CC)n4)c(F)c3)cc2)c[nH]1)c1ccccc1 [Example J14e.1, (1R)-2-((2S)-2-(4-(4'-(2-((2S)-1-((2R)-2-(diethylamino)-2-phenylacetyl)-4,4-difluoro-2-pyrrolidinyl)-1H-imidazol-4-yl)-3-fluoro-4-biphenylyl)-1H-imidazol-2-yl)-1-pyrrolidinyl)-N,N-diethyl-2-oxo-1-phenylethanamine] | 0.001 to 0.999
Cc1nc([C@@H]2CCCN2C(=O)[C@@H](c2ccccc2)N2CCCCC2)[nH]c1-c1ccc(-c2ccc(-c3[nH]c([C@@H]4CCCN4C(=O)[C@@H](c4ccccc4)N4CCCCC4)nc3C)cc2)cc1 [Example E5i, 1,1'-(4,4'-biphenyldiylbis((4-methyl-1H-imidazole-5,2-diyl)(2S)-2,1-pyrrolidinediyl((1R )-2-oxo-1-phenyl-2,1-ethanediyl)))dipiper idine] | 0.001 to 0.999
C[C@H]1CC[C@@H](c2nc(-c3ccc(-c4ccc(-c5c[nH]c([C@@H]6CC[C@H](C)N6C(=O)Cc6ccccc6)n5)cc4)cc3)c[nH]2)N1C(=O)Cc1ccccc1 [Example M159, 4,4'-(4,4'-biphenyldiyl)bis(2-((2S,5S)-5-methyl-1-(phenylacetyl)-2-pyrrolidinyl)-1H-imidazole)] | 0.001 to 0.999
CC(C)[C@H](NC(=O)C1CC1)C(=O)N1[C@@H]2C[C@@H]2C[C@H]1c1ncc(-c2ccc(-c3ccc(-c4cnc([C@@H]5C[C@H]6C[C@H]6N5C(=O)[C@@H](NC(=O)C5CC5)C(C)C)[nH]4)cc3)cc2)[nH]1 [Example M141, N((1S)-1-(((1R,3S,SR)-3-(4-(4'-(2-((1R,3S,SR)-2-((2S)-2-((cyclopropylcarbonyl)amino)-3-methylbutanoyl)-2-azabicyclo[3.1.0]hex-3-yl)-1H imidazol-4-y/)-4-biphenyly/)-1H-imidazol-2-yl)-2-azabicyclo[3.1. 0]hex-2-yl)carbonyl)-2-methylpropyl)cyclopropanecarbamate] | 1 to 99
Cc1nc([C@@H]2CCCN2C(=O)[C@@H](c2ccccc2)N2CCCCC2)[nH]c1-c1ccc(-c2ccc(-c3c[nH]c([C@@H]4CCCN4C(=O)[C@@H](c4ccccc4)N4CCCCC4)n3)cc2)cc1 [Example E5b, 1-((1R)-2-((2S)-2-(4-(4'-(4-methyl-2-((2S)-1-((2R)-2-phenyl-2-(1-piperidinyl)acetyl)-2-pyrrolidinyl)-1H-imidazol-5-yl)-4-biphenylyl)-1H-imidazol-2-yl)-1-pyrrolidinyl)-2-oxo-1-phenylethyl)piperidine] | 0.001 to 0.999
CCCc1[nH]c([C@@H]2CCCN2C(=O)[C@@H](c2ccccc2)N(CC)CC)nc1-c1ccc(-c2ccc(-c3c[nH]c([C@@H]4CCCN4C(=O)[C@@H](c4ccccc4)N(CC)CC)n3)cc2)cc1 [Example J14c.1, (1R)-2-((2S)-2-(4-(4'-(2-((2S)-1-((2R)-2-(diethylamino)-2-phenylacetyl)-2-pyrrolidinyl)-1H-imidazol-4-yl)-4-biphenylyl)-5-propyl-1H-imidazol-2-yl)-1-pyrrolidinyl)-N,N-diethyl-2-oxo-1-phenylethanamine] | 0.001 to 0.999
COC(=O)N[C@H](C(=O)N1CCC[C@H]1c1nc(-c2ccc(-c3ccc(-c4[nH]c([C@@H]5CCCN5C(=O)[C@@H](NC(=O)OC)C(C)C)nc4CC4OCCCO4)cc3)cc2)c[nH]1)C(C)C [Example J14, methyl ((1S)-1-(((2S)-2-(4-(1,3-dioxan-2-ylmethyl)-5-(4'-(2-((2S)-1-((2S)-2-((methoxycarbonyl)amino)-3-methylbutanoyl)-2-pyrrolidinyl)-1H-imidazol-4-yl)-4-biphenylyl)-1H-imidazol-2-yl)-1-pyrrolidinyl)carbonyl)-2-methylpropyl)carba mate] | 0.001 to 0.999
COC(=O)Cc1[nH]c([C@@H]2CCCN2C(=O)[C@@H](NC(=O)OC)[C@@H](C)OC)nc1-c1ccc(-c2ccc(-c3c[nH]c([C@@H]4CCCN4C(=O)[C@@H](NC(=O)OC)[C@@H](C)OC)n3)cc2)cc1 [Example J14b, methyl (2-((2S)-1-(N-(methoxycarbonyl)-O-methyl-L-threonyl)-2-pyrrolidinyl)-4-(4'-(2-((2S)-1-(N-(methoxycarbonyl)-O-methyl-L-threonyl)-2-pyrrolidinyl)-1H-imidazol-4-yl)4-biphenylyl)-1H-imidazol-5-yl)acetate] | 0.001 to 0.999
COC(=O)N[C@H](C(=O)N1CCC[C@H]1c1nc(-c2ccc(-c3ccc(-c4[nH]c([C@@H]5CCCN5C(=O)[C@@H](NC(=O)OC)C(C)C)nc4CO)cc3)cc2)c[nH]1)C(C)C [Example J14f, methyl ((1S)-1-(((2S)-2-(4-(hydroxymethyl)-5-(4'-(2-((2S)-1-((2S)-2-((methoxycarbonyl)amino)-3-methylbutanoyl)-2-pyrrolidinyl)-1H-imidazol-4-yl)-4-biphenylyl)-1H-imidazol-2-yl)-1-pyrrolidinyl)carbonyl)-2-methylpropyl)carba mate] | 0.001 to 0.999
COC(=O)NC(C)(C)C(=O)N1[C@@H](C)CC[C@H]1c1ncc(-c2ccc(-c3ccc(-c4cnc([C@@H]5CC[C@H](C)N5C(=O)C(C)(C)NC(=O)OC)[nH]4)cc3)cc2)[nH]1 [Example M156, methyl (2-((2S,5S)-2-(4-(4'-(2-((2S,5S)-1-(2-((methoxycarbonyl)amino)-2-methylpropanoyl)-5-methyl-2-pyrrolidinyl)-1H-imidazol-4-yl)-4-biphenylyl)-1H-imidazol-2-yl)-5-methyl-1-pyrrolidinyl)-1,1-dimethy 1-2-oxoethyl)carbamate] | 1 to 99
CC(C)[C@@H](O)C(=O)N1[C@@H](C)CC[C@H]1c1nc(-c2ccc(-c3ccc(-c4c[nH]c([C@@H]5CC[C@H](C)N5C(=O)[C@H](O)C(C)C)n4)cc3)cc2)c[nH]1 [Example M160, (2R,2'R)-1,1'-(4,4'-biphenyldiylbis(1H-imidazole-4,2-diyl((2S,5S)-5-methyl-2,1-pyrrolidinediyl)))bis(3-methyl-1-oxo-2-butanol)] | 1 to 99
CCN(CC)[C@@H](C(=O)N1CCC[C@H]1c1nc(-c2ccc(-c3ccc(-c4nc([C@@H]5CCCN5C(=O)[C@@H](c5ccccc5)N(CC)CC)[nH]c4C)cc3)cc2)c[nH]1)c1ccccc1 [Example E5a, (1R)-2-((2S)-2-(4-(4'-(2-((2S)-1-((2R)-2-(diethylamino)-2-phenylacetyl)-2-pyrrolidinyl)-1H-imidazol-4-yl)-4-biphenylyl)-5-methyl-1H-imidazol-2-yl)-1-pyrrolidinyl)-N,N-diethyl-2-oxo-1-phenylethanamine] | 0.001 to 0.999
COC(=O)NCC(=O)N1[C@@H](C)CC[C@H]1c1nc(-c2ccc(-c3ccc(-c4c[nH]c([C@@H]5CC[C@H](C)N5C(=O)CNC(=O)OC)n4)cc3)cc2)c[nH]1 [Example M155, methyl (2-((2S,5S)-2-(4-(4'-(2-((2S,5S)-1-(((methoxycarbonyl)amino)acetyl)-5-methyl-2-pyrrolidinyl)-1H-imidazol-4-yl)-4-biphenylyl)-1H-imidazol-2-yl)-5-methyl-1-pyrrolidinyl)-2-oxoethyl)carbamate] | 1 to 99
